{"source": "ChEMBL document CHEMBL1201862", "about": "“PubChem BioAssay data set” (2004)", "key": {"[1]": {"molecular_target": "Estrogen receptor beta (Homo sapiens, UniProt Q92731)", "sequence (Q92731 whole entry)": "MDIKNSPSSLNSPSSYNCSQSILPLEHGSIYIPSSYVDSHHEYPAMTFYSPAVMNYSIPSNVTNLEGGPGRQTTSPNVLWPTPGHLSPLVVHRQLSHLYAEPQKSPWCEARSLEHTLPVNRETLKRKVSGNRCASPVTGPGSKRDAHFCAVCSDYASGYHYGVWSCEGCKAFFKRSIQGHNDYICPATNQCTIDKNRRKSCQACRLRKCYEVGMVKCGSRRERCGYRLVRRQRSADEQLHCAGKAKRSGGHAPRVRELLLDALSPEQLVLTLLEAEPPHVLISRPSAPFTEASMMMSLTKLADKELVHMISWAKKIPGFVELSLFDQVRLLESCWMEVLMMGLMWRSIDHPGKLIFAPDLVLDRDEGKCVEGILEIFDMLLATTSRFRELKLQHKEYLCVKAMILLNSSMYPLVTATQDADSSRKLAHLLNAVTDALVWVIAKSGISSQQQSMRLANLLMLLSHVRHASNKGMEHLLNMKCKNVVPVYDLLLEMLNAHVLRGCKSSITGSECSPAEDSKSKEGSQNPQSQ"}, "[2]": {"test": "NIH-3T3 fibroblast cytotoxicity, dose response, cytotoxicity control, cell-based, fluorescence, Alamar Blue, secondary assay (AID 2327);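 note: NIH-3T3 mouse fibroblasts cultured with fluconazole at 8 µg/mL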", "assay_type": "functional"}, "[3]": {"system": "INS1", "test": "INS-1E survival protection against cytokine death – cell-based, luminescence, retest, dose response (AID 449756);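 note: cell death triggered by IL-1 beta plus TNF-alpha plus IFN-gamma mixture; protective hits raise ATP signal compared with cytokine alone wells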", "assay_type": "functional", "details": "Rattus norvegicus"}, "[4]": {"test": "Trypanosoma cruzi growth suppression in host cells – NIH3T3 host cells, beta-gal luminescence, confirmation (AID 2044);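 note: luminescent beta-galactosidase reporter signal from transgenic T. cruzi replicating inside host cells; inhibitors lower the luminescence signal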", "assay_type": "functional, cell-based"}, "[5]": {"test": "cells"}, "[6]": {"test": "NIH3T3 cell viability loss – ATP luminescence, mouse fibroblasts, counter-screen, dose response (AID 2010);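 note: cells exposed to compound for about 90 hours before reading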", "assay_type": "functional, cell-based"}, "[7]": {"test": "fluconazole-exposed Candida albicans growth modulators – fluorescence, retest, confirmation (AID 2467)", "assay_type": "functional, cell-based"}, "[8]": {"test": "A cytotoxicity screen of small molecule inhibitors of the PhoP region in Salmonella typhi identified in the primary screen. [Related pubchem assays: 1850, 1864, 1985 ]", "assay_type": "functional"}, "[9]": {"test": "blockers of bursicon-stimulated LGR2 cAMP reporter – cell-based, HEK293, CRE-luciferase reporter, cherry pick, set 2, dose response (AID 743343);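 note: transfected cells were stimulated with diluted bursicon conditioned medium after compound addition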", "assay_type": "functional"}, "[10]": {"molecular_target": "Disintegrin and metalloproteinase domain-containing protein 17 (Homo sapiens, UniProt P78536)", "sequence (P78536 whole entry, the tested form may be a part)": "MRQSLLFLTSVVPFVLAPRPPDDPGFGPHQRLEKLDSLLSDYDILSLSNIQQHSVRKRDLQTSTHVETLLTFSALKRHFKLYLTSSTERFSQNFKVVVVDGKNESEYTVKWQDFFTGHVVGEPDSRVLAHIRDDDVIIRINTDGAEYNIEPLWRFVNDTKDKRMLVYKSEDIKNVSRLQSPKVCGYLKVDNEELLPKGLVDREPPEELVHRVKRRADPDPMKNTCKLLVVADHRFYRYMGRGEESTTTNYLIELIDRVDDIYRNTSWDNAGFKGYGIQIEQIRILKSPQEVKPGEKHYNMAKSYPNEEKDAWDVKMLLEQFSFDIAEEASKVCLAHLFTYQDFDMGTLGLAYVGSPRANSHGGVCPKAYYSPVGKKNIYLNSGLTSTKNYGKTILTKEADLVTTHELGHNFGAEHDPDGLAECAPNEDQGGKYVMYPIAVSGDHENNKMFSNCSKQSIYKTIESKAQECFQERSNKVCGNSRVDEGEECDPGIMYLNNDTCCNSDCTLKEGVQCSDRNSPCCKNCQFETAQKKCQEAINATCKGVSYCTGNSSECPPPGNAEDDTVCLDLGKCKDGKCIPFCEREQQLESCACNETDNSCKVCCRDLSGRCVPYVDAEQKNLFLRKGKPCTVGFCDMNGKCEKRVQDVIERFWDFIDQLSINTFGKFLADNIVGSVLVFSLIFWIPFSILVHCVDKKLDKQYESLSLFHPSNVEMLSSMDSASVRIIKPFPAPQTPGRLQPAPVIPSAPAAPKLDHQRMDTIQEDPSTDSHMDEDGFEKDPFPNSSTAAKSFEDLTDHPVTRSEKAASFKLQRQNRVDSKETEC", "test": "inhibition of ADAM17 substrate cleavage – biochemical, quenched FRET substrate, counter-screen for ADAM10 exosite inhibitor project, dose response (AID 743253)"}, "[11]": {"test": "A549 cell cytotoxicity, dose response, cytotoxicity control, plate reader, cherry-pick, antagonist series (AID 743412)", "assay_type": "functional, cell-based"}, "[12]": {"test": "toxicity toward HepG2 liver cells – cell-based, plate reader, cherry-pick, antagonist series, cytotoxicity control, dose response (AID 743416)", "assay_type": "functional"}, "[13]": {"test": "potency of ADAM10 substrate cleavage blockers – biochemical, QFRET, dose response (AID 743254);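 note: ADAM10 enzyme with the DM2 quenched FRET peptide as substrate; EDANS fluorescence gain as the protease cuts the substrate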"}, "[14]": {"molecular_target": "T1, Estrogen receptor (Homo sapiens, UniProt P03372)", "T1 sequence (P03372 whole entry)": "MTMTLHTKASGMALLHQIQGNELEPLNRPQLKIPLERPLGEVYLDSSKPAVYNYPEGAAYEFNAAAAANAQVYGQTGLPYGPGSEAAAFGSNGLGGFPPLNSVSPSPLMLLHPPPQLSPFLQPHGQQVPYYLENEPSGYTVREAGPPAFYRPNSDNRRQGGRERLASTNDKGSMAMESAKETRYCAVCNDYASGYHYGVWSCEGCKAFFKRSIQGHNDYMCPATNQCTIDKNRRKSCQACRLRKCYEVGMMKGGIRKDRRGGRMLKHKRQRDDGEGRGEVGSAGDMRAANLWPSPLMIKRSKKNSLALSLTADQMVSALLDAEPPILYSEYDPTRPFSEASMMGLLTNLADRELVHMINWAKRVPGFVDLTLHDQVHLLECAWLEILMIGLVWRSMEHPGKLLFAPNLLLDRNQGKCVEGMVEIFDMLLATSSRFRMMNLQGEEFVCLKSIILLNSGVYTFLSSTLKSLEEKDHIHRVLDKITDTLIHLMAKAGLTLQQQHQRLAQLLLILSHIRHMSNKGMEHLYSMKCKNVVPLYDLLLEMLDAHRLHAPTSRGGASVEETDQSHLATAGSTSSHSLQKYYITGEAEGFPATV"}, "[15]": {"test": "Luminescence-based cell-based high throughput dose response assay to identify activators of the DAF-12 from the parasite S. stercoralis (ssDAF-12).", "assay_type": "functional"}, "[16]": {"molecular_target": "T2, Oxysterols receptor LXR-beta (Homo sapiens, UniProt P55055)", "T2 sequence (P55055 whole entry)": "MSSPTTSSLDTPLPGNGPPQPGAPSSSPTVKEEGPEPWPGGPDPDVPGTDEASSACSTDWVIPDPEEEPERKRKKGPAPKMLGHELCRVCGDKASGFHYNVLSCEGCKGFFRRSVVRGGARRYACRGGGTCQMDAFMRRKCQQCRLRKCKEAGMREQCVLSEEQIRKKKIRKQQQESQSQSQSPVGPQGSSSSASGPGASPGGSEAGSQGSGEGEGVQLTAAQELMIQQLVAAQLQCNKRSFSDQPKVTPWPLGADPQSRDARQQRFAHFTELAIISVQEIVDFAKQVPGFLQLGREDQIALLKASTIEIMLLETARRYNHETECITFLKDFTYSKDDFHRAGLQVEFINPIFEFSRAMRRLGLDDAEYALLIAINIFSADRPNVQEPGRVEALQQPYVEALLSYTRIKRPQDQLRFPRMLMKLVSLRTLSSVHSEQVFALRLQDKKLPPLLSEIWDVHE", "test": "LXR agonists, Gal4 luciferase reporter, dose response, counter-screen for ssDAF-12 agonist project, cell-based, luminescence, HEK293, S. stercoralis campaign (AID 720737)", "assay_type": "functional", "details": "read-out: IC50 (the source's name)"}, "[17]": {"test": "viability of uninfected HEp-2 cells – cell-based, HTS, cytotoxicity control for RSV inhibitor project, dose response (AID 2410)", "assay_type": "functional", "details": "human respiratory syncytial virus"}, "[18]": {"molecular_target": "Induced myeloid leukemia cell differentiation protein Mcl-1 (Homo sapiens, UniProt Q07820)", "sequence (Q07820 whole entry)": "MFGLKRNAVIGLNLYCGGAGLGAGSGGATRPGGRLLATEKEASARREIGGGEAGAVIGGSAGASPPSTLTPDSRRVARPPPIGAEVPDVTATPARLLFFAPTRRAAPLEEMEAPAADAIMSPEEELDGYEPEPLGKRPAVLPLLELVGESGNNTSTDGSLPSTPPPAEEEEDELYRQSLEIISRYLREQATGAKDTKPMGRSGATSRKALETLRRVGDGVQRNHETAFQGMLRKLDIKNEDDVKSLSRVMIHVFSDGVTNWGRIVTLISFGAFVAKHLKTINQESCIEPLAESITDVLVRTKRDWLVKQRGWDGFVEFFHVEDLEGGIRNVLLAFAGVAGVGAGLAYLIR", "assay_type": "functional"}, "[19]": {"molecular_target": "T3, Voltage-gated N-type calcium channel alpha-1B subunit/Amyloid beta A4 precursor protein-binding family A member 1 (Homo sapiens, UniProt Q00975+Q02410)", "T3 sequence (Q00975 whole entry)": "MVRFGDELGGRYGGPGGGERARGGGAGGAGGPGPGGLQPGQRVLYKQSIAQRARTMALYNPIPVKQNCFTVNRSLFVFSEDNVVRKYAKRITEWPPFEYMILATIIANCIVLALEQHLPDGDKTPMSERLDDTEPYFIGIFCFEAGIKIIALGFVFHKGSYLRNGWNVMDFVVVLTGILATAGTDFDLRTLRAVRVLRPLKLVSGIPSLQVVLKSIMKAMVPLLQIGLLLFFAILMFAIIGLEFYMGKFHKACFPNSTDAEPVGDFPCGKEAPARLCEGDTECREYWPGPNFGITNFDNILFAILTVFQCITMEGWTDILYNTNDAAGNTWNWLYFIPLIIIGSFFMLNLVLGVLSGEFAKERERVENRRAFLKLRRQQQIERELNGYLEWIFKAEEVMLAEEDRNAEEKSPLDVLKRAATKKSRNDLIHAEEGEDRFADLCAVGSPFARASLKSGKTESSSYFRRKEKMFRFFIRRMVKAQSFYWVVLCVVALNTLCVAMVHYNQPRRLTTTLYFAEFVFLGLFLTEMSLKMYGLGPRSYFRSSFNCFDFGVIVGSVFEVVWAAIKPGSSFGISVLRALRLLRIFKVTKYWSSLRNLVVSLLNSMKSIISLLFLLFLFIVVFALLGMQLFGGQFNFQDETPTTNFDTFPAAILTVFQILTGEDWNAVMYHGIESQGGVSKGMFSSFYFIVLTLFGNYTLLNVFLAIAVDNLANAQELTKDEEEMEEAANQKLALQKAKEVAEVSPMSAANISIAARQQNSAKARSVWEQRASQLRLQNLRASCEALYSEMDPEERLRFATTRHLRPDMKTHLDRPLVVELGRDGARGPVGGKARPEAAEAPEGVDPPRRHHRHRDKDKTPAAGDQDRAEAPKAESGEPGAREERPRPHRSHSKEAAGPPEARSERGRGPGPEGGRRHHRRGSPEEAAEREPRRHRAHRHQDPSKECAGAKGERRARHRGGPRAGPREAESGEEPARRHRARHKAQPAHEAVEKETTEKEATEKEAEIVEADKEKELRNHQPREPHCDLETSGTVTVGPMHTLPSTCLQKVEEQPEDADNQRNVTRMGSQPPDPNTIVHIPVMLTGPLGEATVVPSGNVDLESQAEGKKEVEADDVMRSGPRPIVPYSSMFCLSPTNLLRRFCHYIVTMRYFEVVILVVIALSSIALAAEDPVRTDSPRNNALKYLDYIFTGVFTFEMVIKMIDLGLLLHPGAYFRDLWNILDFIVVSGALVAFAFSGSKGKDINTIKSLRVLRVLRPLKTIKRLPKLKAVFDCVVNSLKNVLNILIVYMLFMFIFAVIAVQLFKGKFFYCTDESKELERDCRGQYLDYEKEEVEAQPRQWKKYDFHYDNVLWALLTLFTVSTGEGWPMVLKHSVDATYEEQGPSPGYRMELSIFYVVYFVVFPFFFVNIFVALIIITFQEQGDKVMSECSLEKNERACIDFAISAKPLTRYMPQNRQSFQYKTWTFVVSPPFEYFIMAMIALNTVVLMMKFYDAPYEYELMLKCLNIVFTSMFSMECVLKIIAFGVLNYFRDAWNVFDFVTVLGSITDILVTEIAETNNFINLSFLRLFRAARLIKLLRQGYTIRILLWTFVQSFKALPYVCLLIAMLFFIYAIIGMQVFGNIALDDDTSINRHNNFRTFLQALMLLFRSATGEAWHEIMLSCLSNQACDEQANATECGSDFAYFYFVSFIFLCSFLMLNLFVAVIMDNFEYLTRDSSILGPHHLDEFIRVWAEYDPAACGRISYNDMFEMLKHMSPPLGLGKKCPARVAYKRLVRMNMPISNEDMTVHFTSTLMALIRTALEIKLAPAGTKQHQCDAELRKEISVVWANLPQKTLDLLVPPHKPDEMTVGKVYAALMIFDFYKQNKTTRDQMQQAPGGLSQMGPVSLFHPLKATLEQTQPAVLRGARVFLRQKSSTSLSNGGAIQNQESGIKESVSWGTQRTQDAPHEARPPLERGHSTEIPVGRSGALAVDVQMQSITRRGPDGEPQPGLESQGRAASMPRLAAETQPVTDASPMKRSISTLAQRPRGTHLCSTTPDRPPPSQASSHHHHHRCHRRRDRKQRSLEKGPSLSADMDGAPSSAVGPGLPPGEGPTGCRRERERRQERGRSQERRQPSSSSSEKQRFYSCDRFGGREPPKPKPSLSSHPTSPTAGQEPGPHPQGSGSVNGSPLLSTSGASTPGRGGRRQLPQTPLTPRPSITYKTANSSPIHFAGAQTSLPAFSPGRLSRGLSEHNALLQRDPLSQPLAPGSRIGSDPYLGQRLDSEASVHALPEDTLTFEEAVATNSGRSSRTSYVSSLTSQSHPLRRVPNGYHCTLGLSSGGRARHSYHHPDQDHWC", "T3 sequence (Q02410 whole entry)": "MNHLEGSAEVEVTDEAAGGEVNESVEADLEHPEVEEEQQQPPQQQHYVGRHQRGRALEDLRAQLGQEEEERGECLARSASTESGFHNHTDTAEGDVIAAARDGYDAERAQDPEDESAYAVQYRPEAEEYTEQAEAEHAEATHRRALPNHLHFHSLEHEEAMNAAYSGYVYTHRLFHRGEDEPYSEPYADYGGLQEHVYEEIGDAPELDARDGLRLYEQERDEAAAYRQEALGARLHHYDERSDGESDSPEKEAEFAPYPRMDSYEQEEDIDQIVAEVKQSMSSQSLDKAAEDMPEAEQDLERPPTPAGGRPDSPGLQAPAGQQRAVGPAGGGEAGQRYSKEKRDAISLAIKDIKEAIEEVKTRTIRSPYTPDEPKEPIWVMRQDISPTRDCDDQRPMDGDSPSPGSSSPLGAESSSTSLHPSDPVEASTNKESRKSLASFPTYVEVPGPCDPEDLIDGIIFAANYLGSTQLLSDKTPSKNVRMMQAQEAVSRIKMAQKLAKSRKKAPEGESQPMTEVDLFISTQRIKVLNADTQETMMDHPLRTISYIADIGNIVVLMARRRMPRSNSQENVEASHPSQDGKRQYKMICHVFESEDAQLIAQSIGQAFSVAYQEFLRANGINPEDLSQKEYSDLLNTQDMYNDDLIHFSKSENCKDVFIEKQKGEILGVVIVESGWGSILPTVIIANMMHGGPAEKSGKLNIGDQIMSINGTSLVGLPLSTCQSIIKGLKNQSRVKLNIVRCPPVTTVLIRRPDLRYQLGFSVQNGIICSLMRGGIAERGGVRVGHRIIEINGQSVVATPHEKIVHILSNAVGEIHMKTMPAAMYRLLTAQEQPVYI", "assay_type": "protein assay"}, "[20]": {"molecular_target": "T3, Voltage-gated N-type calcium channel alpha-1B subunit/Amyloid beta A4 precursor protein-binding family A member 1", "assay_type": "protein assay", "remark": "listed apart in the source"}, "[21]": {"molecular_target": "FAD-linked sulfhydryl oxidase ALR (Homo sapiens, UniProt P55789)", "sequence (P55789 whole entry)": "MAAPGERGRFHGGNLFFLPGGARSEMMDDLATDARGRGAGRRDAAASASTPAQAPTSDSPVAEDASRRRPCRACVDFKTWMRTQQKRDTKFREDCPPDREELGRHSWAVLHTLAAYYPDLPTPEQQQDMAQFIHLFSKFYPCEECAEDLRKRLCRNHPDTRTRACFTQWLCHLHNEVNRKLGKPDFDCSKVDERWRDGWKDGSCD", "test": "ALR-catalysed DTT oxidation blockers – biochemical, H2O2 detection, luminescence, cherry-pick, dose response (AID 493248)"}, "[22]": {"test": "HIV-1 Vif–A3G interaction blockers – biochemical, TR-FRET, GST-Vif 1-94, biotin-A3G peptide, dose response retest, primary screen (AID 1117319);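 note: TR-FRET signal of purified GST-Vif binding a biotinylated A3G peptide; inhibitors lower the FRET signal by blocking Vif and A3G binding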", "assay_type": "functional"}, "[23]": {"molecular_target": "T4, Aminopeptidase N (Plasmodium falciparum FcB1/Columbia, UniProt O96935)", "T4 sequence (O96935 whole entry)": "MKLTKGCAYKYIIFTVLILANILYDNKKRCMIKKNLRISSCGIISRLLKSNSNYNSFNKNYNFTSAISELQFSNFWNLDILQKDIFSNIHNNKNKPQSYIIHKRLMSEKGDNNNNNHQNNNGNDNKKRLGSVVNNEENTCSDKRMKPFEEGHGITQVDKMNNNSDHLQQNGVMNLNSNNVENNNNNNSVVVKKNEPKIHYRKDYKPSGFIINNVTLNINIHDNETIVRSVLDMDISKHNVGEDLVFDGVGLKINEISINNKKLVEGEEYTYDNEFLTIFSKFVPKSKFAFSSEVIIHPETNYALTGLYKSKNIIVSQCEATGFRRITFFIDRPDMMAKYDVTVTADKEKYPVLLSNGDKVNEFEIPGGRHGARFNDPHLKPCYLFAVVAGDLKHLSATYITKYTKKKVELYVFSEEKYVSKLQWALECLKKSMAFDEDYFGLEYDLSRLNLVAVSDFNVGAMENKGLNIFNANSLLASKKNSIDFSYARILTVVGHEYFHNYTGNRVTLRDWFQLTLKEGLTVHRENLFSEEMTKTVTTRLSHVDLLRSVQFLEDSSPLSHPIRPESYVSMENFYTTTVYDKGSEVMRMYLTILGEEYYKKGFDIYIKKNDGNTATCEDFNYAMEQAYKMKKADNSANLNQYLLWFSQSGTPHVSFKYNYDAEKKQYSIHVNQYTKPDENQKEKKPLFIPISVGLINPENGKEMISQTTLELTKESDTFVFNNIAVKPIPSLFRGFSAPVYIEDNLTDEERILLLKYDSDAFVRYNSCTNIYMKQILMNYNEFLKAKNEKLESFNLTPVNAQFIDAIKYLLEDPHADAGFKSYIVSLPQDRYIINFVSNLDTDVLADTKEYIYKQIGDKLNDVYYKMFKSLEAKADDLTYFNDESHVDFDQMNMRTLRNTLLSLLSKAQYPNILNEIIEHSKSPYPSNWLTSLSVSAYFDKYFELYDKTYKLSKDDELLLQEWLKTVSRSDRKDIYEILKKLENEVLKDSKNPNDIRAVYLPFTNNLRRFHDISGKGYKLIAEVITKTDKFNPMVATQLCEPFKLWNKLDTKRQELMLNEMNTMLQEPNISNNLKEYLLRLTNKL", "test": "malaria alanyl aminopeptidase activity blockers – biochemical, fluorogenic H-Leu-NHMec substrate, 1536-well (AID 1445)", "design": "species or system Plasmodium falciparum 3D7, 3D7"}}, "note": "The source made the active and inactive calls."}
{"smiles": "CCN(CC)CCNC(=O)c1cc(Cl)c(N)cc1OC", "values": [{"measurement": "IC50", "setting": "[1]", "result": "> 50 µM (not active)"}]}
{"smiles": "Cc1cc(-c2ccccc2)cc(-c2ccccc2)[n+]1CCc1ccccc1.[O-][Cl+3]([O-])([O-])[O-]", "values": [{"measurement": "EC50", "setting": "[2]", "result": "> 160 µM (inactive)"}, {"measurement": "AC50", "setting": "[3]", "result": "< 0.195 µM (active)"}, {"measurement": "EC50", "setting": "[4]", "result": "< 0.1 µM (active)"}, {"measurement": "EC50", "setting": "[5]", "result": "0.07 µM (active)"}, {"measurement": "EC50", "setting": "[6]", "result": "> 60 µM (not active)"}, {"measurement": "EC50", "setting": "[7]", "result": "2.98 µM (active)"}]}
{"smiles": "CCN(CC)CCCNC(=O)c1c(O)nc2c(c1O)CCCC2", "values": [{"measurement": "EC50", "setting": "[8]", "result": "> 50 µM (active)"}]}
{"smiles": "COc1cccc(NC(=O)CN(C)C(C)C(=O)Nc2ccc(S(=O)(=O)N3CCOCC3)cc2)c1", "note": "(stereo not given)", "values": [{"measurement": "EC50", "setting": "[8]", "result": "> 50 µM (active)"}]}
{"smiles": "O=C(CSc1nc2ccccc2[nH]1)Nc1nc(-c2cccc(Br)c2)cs1", "values": [{"measurement": "AC50", "setting": "[9]", "result": "35.4 µM (active)"}, {"measurement": "IC50", "setting": "[10]", "result": "> 69.5 µM (inactive)"}, {"measurement": "AC50", "setting": "[11]", "result": "24.2 µM (active)"}, {"measurement": "AC50", "setting": "[12]", "result": "38.4 µM (active)"}, {"measurement": "IC50", "setting": "[13]", "result": "> 69.5 µM (inactive)"}]}
{"smiles": "COCCOC(=O)c1[nH]c2c(c1C)C(=O)CC(c1ccco1)C2", "note": "(stereo not given)", "values": [{"measurement": "IC50", "setting": "[14]", "result": "19.5 µM (active)"}]}
{"smiles": "COc1ccc(C2CC(c3cccs3)=NN2C(=O)CN2CCCCC2)cc1", "note": "(stereo not given)", "values": [{"measurement": "IC50", "setting": "[15]", "result": "> 67.5 µM (inactive)"}, {"measurement": "EC50", "setting": "[16]", "result": "> 67.5 µM (inactive)"}]}
{"smiles": "O=C(c1cccs1)N1N=C(c2ccccc2)CC1c1ccc(O)cc1", "note": "(stereo not given)", "values": [{"measurement": "IC50", "setting": "[10]", "result": "> 69.5 µM (inactive)"}, {"measurement": "CC50", "setting": "[17]", "result": "24.2 µM (active)"}, {"measurement": "IC50", "setting": "[13]", "result": "> 69.5 µM (inactive)"}]}
{"smiles": "O=[N+]([O-])c1ccc(-c2c[nH]c(S)n2)cc1", "values": [{"measurement": "IC50", "setting": "[18]", "result": "1.38 µM (active)"}, {"measurement": "IC50", "setting": "[19]", "result": "11.3 µM (active)"}, {"measurement": "IC50", "setting": "[20]", "result": "> 50 µM (inactive)"}, {"measurement": "AC50", "setting": "[21]", "result": "1.99 µM (active)"}, {"measurement": "IC50", "setting": "[22]", "result": "> 100 µM (active)"}]}
{"smiles": "O=C(Nc1ccon1)C12CC3CC(C1)CC(n1cnc([N+](=O)[O-])n1)(C3)C2", "values": [{"measurement": "EC50", "setting": "[4]", "result": "< 0.1 µM (active)"}, {"measurement": "EC50", "setting": "[5]", "result": "0.088 µM (active)"}, {"measurement": "EC50", "setting": "[6]", "result": "> 60 µM (not active)"}]}
{"smiles": "CN(C)C=O.Cc1ccc(-c2cc(-c3nnc(S)o3)c3ccccc3n2)cc1", "values": [{"measurement": "IC50", "setting": "[23]", "result": "35.5 µM (active)"}]}
{"smiles": "CC1CCN(C(=O)COc2ccc(Nc3ccccc3)cc2)CC1", "values": [{"measurement": "EC50", "setting": "[8]", "result": "> 50 µM (active)"}]}
